Laboratory results from patent US10322123B2, “Compound for anti-cancer therapy that acts by targeting GOF mutant P53 and stimulates P73 to restore the P53 pathway signaling” (The Penn State Research Foundation, priority 2014, dated 2019).

How the values were obtained:
cancer cells [1] = experiment: Flow cytometry sub-G1 DNA content; type: cell-based, human; conditions: 72 hr
Method: (§1) Cells were treated with NSC59984 or other drugs. Seventy-two hours after treatment, the cells were fixed with ethanol and stained with Propidium Iodide (PI). The samples were then subjected to analysis by an Epics Elite flow cytometer to measure the DNA content of the stained cells.

normal cells = experiment: Flow cytometry sub-G1 DNA content; type: cell-based, human; conditions: 25 μM, 72 hr
Method: as §1

RXF393 cells = experiment: Flow cytometry sub-G1 DNA content; type: cell-based, human; conditions: 50 μM, 8 hours
Method: as §1

PARP cleavage = experiment: Cleaved PARP Western blot; type: cell-based, human; conditions: for PARP cleavage: 30 hours
Method: (§2) Proteins were extracted from cells and electrophoresed through 4-12% SDS-PAGE then transferred to PVDF membranes. The primary antibodies indicated in the figures were incubated with the transferred PVDF in blocking buffer at 4° C. overnight. Antibody binding was detected on PVDF with appropriate IRDye-secondary antibodies (LI-COR Biosciences, USA) by the ODYSSEY infrared imaging system.

DLD-1 cells = experiment: Flow cytometry sub-G1 DNA content; type: cell-based, human
Method: as §1
Cells were infected with retrovirus containing the pSIREN-REtrpcQ retroviral vector recombinant with TAp73 RNAi. Cells were cultured with blasticidin for several weeks, and blasticidin-resistant clones were selected. Knock-down of p73 was detected by measuring p73 protein levels by Western blot with anti-p73 antibody (Bethyl laboratories Inc. USA).

[2] = system: cancer cell lines bearing different p53 mutations; experiment: CellTiter-Glo luminescent cell viability assay, cell line panel; type: cell-based, human; conditions: most cancer cells compared with normal cells, 72 hr
Method: (§3) Cells at a concentration of 5000 cells/well in 96-well plates were treated with NSC59984 or other drugs. At seventy-two hours after treatment, cells were mixed with an equal volume of CellTiter-Glo reagents (Promega, Madison, Wis.), following the manufacturer's protocol, and bioluminescence imaging was measured using the IVIS imager.

γH2AX = experiment: Genotoxicity measured by γH2AX; type: cell-based, human
Method: as §2

SW480 cancer cells = experiment: CellTiter-Glo cell viability, combination with CPT-11; type: cell-based, human; conditions: for Combination index (CI): SW480, 72 hr
Method: as §3
(§4) All results were obtained from triplicate experiments, unless other indicated. Statistical analyses were performed using PRISM4 Software (GraphPad Software, Inc., San Diego, Calif., USA), ANOVA and Student's t-test. Statistical significances were determined by p<0.05. Combination indices were calculated using the Chou-Talalay method with CalcuSyn software (biosoft).

[3] = system: MRC-5 normal fibroblast cells; experiment: as above; type: cell-based, human; conditions: for Combination index (CI): MRC, 72 hr
Method: as §3, §4

[4] = system: Wi38 normal fibroblast cells; experiment: as above; type: cell-based, human; conditions: for Combination index (CI): Wi38, 72 hr
Method: as §3, §4

cancer cells [5] = experiment: Colony formation assay; type: cell-based, human; conditions: treated 3 days, then drug-free medium two weeks
Method: Franken N A, et al., Nat Protoc 2006; 1: 2315-9). Cancer cells were plated at 500 cells/well on 6-well plate, and then treated with NSC59984 next day. At 3 days after NSC59984 treatment, cancer cells were cultured with drug-free complete medium for two weeks with fresh medium changed every 3 days. Cells were fixed with 10% formalin and stained with 0.05% crystal violet at the end of two weeks period of cell culture.

p73 = target: T1, p73 (Homo sapiens, UniProt O15350); experiment: p73 protein level Western blot; type: cell-based; conditions: mutant p53-expressing tumor cells, 8 hours
T1 construct: endogenous in cells
T1 sequence (O15350 whole entry): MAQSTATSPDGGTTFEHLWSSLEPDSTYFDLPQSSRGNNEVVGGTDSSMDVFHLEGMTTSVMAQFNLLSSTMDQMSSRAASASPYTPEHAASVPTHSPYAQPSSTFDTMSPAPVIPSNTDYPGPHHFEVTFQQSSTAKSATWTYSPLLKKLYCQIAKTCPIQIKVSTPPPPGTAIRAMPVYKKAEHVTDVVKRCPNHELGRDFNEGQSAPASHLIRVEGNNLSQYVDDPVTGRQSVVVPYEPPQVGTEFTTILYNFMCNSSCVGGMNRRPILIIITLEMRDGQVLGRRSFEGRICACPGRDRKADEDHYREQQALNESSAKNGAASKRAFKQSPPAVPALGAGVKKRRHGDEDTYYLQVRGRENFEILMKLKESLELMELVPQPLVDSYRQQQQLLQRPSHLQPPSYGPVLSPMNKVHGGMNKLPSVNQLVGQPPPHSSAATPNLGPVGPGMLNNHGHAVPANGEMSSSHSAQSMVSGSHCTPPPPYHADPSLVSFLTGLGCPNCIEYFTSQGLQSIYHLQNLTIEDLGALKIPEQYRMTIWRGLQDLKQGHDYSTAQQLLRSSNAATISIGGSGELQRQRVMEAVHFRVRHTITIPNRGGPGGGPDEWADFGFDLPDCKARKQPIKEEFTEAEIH
Method: as §2

p21, Puma, DR5 and Noxa = experiment: Western blot of p53 target gene proteins; type: cell-based, human
Method: as §2

mutant p53 = experiment: Ubiquitination of mutant p53 (immunoprecipitation); type: cell-based, human; conditions: cancer cells treated with NSC59984 and MG132, 16 hr
Method: Five hundred micrograms of cell lysate were incubated with 2 μg of antibody overnight at 4° C. Then, 25 μl of protein A-Sepharose beads were added to the lysates. The immunoprecipitated proteins were eluted from protein A-Sepharose beads by boiling with 2× sample buffer and subjected to SDS-PAGE.
as §2

[6] = system: Wi38 normal human fibroblast cells; experiment: Flow cytometry sub-G1 DNA content; type: cell-based; conditions: 50 μM, 72 hr
Method: as §1

[7] = system: MRC5 normal human fibroblast cells; experiment: Flow cytometry sub-G1 DNA content; type: cell-based; conditions: 50 μM, 72 hr
Method: as §1

[8] = CPT-11 15 mg/ml, NSC59984 12 mM
[9] = CPT-11 15 mg/ml, NSC59984 25 mM
[10] = CPT-11 15 mg/ml, NSC59984 50 mM
[11] = CPT-11 30 mg/ml, NSC59984 12 mM
[12] = CPT-11 30 mg/ml, NSC59984 25 mM
[13] = CPT-11 30 mg/ml, NSC59984 50 mM
[14] = CPT-11 60 mg/ml, NSC59984 12 mM
[15] = CPT-11 60 mg/ml, NSC59984 25 mM
[16] = CPT-11 60 mg/ml, NSC59984 50 mM
[17] = CPT-11 120 mg/ml, NSC59984 6 mM
[18] = CPT-11 120 mg/ml, NSC59984 12 mM
[19] = CPT-11 120 mg/ml, NSC59984 25 mM
[20] = CPT-11 120 mg/ml, NSC59984 50 mM
[21] = HCT116 and p53-null HCT116 cells

## CN1CCN(C(=O)/C=C/c2ccc([N+](=O)[O-])o2)CC1 [NSC59984, (E)-1-(4-methylpiperazin-1-yl)-3-(5-nitrofuran-2-yl)prop-2-en-1-one]
Cancer cells [1]; 25 μM
  sub-G1 DNA content: 26-56%
Cancer cells [1]; 50 μM
  cells with sub-G1 content: 55-93%
Normal cells
  sub-G1 DNA content increase: not in normal cells
RXF393 cells
  Sub-G1 DNA content: 8.7%
PARP cleavage; cancer cells, dose-dependent
  PARP cleavage: increased
PARP cleavage; normal cells, same doses
  PARP cleavage: not observed
PARP cleavage; p73 knock-down DLD-1 cells, 24 hours
  NSC59984-induced PARP cleavage: partially abrogated
DLD-1 cells; 50 μM, 8 hours, DLD-1
  Sub-G1 DNA content: 8.2%
DLD-1 cells; DLD-1 cells, 72 hr
  percentage of cells with sub-G1 content: increased
DLD-1 cells; p73 knock-down DLD-1 cells, 72 hr
  effect on percentage of cells with sub-G1 content: significantly reduced
[2]
  EC50 cell viability: significantly lower
γH2AX; HCT116 cells, 8 hours, 12 μM
  γH2AX: increase of γH2AX
γH2AX; SW480 and DLD-1 cancer cells, within 24 hr, up to 50 μM
  γH2AX: No γH2AX was found
SW480 cancer cells; CPT-11 15 mg/ml, NSC59984 6 mM
  Combination index (CI): 3.01 ± 0.20
SW480 cancer cells; [8]
  Combination index (CI): 2.02 ± 0.27
SW480 cancer cells; [9]
  Combination index (CI): 0.66 ± 0.04
SW480 cancer cells; [10]
  Combination index (CI): 1.00 ± 0.02
SW480 cancer cells; CPT-11 30 mg/ml, NSC59984 6 mM
  Combination index (CI): 1.80 ± 0.15
SW480 cancer cells; [11]
  Combination index (CI): 0.38 ± 0.04
SW480 cancer cells; [12]
  Combination index (CI): 0.65 ± 0.02
SW480 cancer cells; [13]
  Combination index (CI): 0.40 ± 0.04
SW480 cancer cells; CPT-11 60 mg/ml, NSC59984 6 mM
  Combination index (CI): 0.64 ± 0.17
SW480 cancer cells; [14]
  Combination index (CI): 0.22 ± 0.03
SW480 cancer cells; [15]
  Combination index (CI): 0.57 ± 0.00
SW480 cancer cells; [16]
  Combination index (CI): 0.41 ± 0.04
SW480 cancer cells; [17]
  Combination index (CI): 0.18 ± 0.01
SW480 cancer cells; [18]
  Combination index (CI): 0.36 ± 0.08
SW480 cancer cells; [19]
  Combination index (CI): 0.62 ± 0.05
SW480 cancer cells; [20]
  Combination index (CI): 0.23 ± 0.04
SW480 cancer cells; SW480 cancer cells as compared to MRC5 and Wi38 normal cells, 72 hr
  cell viability, combinational treatment with CPT11: significantly reduced
SW480 cancer cells; SW480 colon cancer cells
  combinational treatment with CPT11: synergic activity
[3]; CPT-11 15 mg/ml, NSC59984 50 μM
  Combination index (CI): 0.00 ± 0.00
[3]; CPT-11 15 mg/ml, NSC59984 6 mM
  Combination index (CI): 1.06 ± 0.43
[3]; [8]
  Combination index (CI): 0.91 ± 0.21
[3]; [9]
  Combination index (CI): 0.54 ± 0.03
[3]; CPT-11 30 mg/ml, NSC59984 50 μM
  Combination index (CI): 0.00 ± 0.00
[3]; CPT-11 30 mg/ml, NSC59984 6 mM
  Combination index (CI): 0.75 ± 0.09
[3]; [11]
  Combination index (CI): 0.40 ± 0.07
[3]; [12]
  Combination index (CI): 0.12 ± 0.07
[3]; CPT-11 60 mg/ml, NSC59984 50 μM
  Combination index (CI): 0.00 ± 0.00
[3]; CPT-11 60 mg/ml, NSC59984 6 mM
  Combination index (CI): 0.49 ± 0.09
[3]; [14]
  Combination index (CI): 0.08 ± 0.04
[3]; [15]
  Combination index (CI): 0.00 ± 0.00
[3]; CPT-11 120 mg/ml, NSC59984 50 μM
  Combination index (CI): 0.02 ± 0.00
[3]; [17]
  Combination index (CI): 0.06 ± 0.02
[3]; [18]
  Combination index (CI): 0.00 ± 0.00
[3]; [19]
  Combination index (CI): 0.00 ± 0.00
[3]; normal fibroblast MRC5 cells
  combinational treatment with CPT11: synergic activity
[4]; CPT-11 15 mg/ml, NSC59984 6 mM
  Combination index (CI): 1.50 ± 0.18
[4]; [8]
  Combination index (CI): 1.45 ± 0.12
[4]; [9]
  Combination index (CI): 0.88 ± 0.11
[4]; [10]
  Combination index (CI): 0.03 ± 0.01
[4]; CPT-11 30 mg/ml, NSC59984 6 mM
  Combination index (CI): 1.10 ± 0.14
[4]; [11]
  Combination index (CI): 0.95 ± 0.05
[4]; [12]
  Combination index (CI): 0.20 ± 0.04
[4]; [13]
  Combination index (CI): 0.03 ± 0.00
[4]; CPT-11 60 mg/ml, NSC59984 6 mM
  Combination index (CI): 0.58 ± 0.10
[4]; [14]
  Combination index (CI): 0.44 ± 0.06
[4]; [15]
  Combination index (CI): 0.01 ± 0.00
[4]; [16]
  Combination index (CI): 0.05 ± 0.00
[4]; [17]
  Combination index (CI): 0.96 ± 0.22
[4]; [18]
  Combination index (CI): 0.29 ± 0.04
[4]; [19]
  Combination index (CI): 0.01 ± 0.00
[4]; [20]
  Combination index (CI): 0.11 ± 0.02
[4]; normal fibroblast Wi38 cells
  combinational treatment with CPT11: synergic activity
Cancer cells [5]
  colony numbers: significantly reduced
p73
  p73 protein levels: not found to be increased
p21, Puma, DR5 and Noxa; [21]
  p21 protein: up-regulated
  protein levels of Puma, DR5 and Noxa: not up-regulated
p21, Puma, DR5 and Noxa; SW480 and DLD-1 cells, increasing doses, 8 hr
  protein levels of p21, Puma, Noxa and DR5: significantly up-regulated
p21, Puma, DR5 and Noxa; p73 knock-down DLD-1 cells, 8 hr
  up-regulation of endogenous p21, Puma, DR5 and Noxa proteins: reduced by p73 knock-down
Mutant p53
  ubiquitination of mutant p53: increased ubiquitination
[6]
  DNA content in Sub-G1: 12%
[7]
  DNA content in Sub-G1: 30%
